{
  "source": "patent US11083798B2",
  "about": "“Conjugate including peptide molecule capable of self-assembly in cell organelle and pharmaceutical composition for preventing or treating cancer including conjugate” (UNIST (ULSAN NATIONAL INSTITUTE OF SCIENCE AND TECHNOLOGY), priority 2016, dated 2021)",
  "key": {"HeLa cells [1]": {"test_system": "HeLa cells", "assay": "ROS generation within mitochondria with Mito SOX Red", "type": "cell-based, human", "details": "6 hours of incubation with HeLa cells", "text": "The mitochondrial dysfunction may result in excessive production of reactive oxygen species (ROS). To confirm the oxidative stress induced by Mito-FF, generation of ROS within mitochondria was monitored using Mito SOX Red."}, "HeLa cells [2]": {"test_system": "HeLa cells", "assay": "ROS generation within the cell with dihydroethidium (DHE)", "type": "cell-based, human", "text": "The mitochondrial stress may eventually lead to the whole-cell stress. […] DHE dye may intercalate with nuclear DNA and oxidizes to ethidium in the presence of ROS, which may show red fluorescence.\n(§1) TEM images of Mito-VV and Mito-FxFx were obtained by observation in the same manner as in Example 3."}, "[3]": {"test_system": "HEK 293T normal cell lines", "assay": "cell viability of normal cell line, Alamar Blue assay", "type": "cell-based", "details": "24 hours of treatment", "protocol": "(§2) In order to analyze cell cytotoxicity, the cancer cells were incubated in an incubator including a DMEM medium (available from Gibco) containing 10% of FBS, 1% of penicillin/streptomycin (available from Life Technologies) at a temperature of 37° C. Cell viability thereof was measured 24 hours after cell incubation, by following the protocol of the manufacturer of Alamar Blue assay (available from Thermo Fisher Scientific).\nIn order to confirm whether apoptosis occurs or not by treatment with Mito-peptides, the cell viability of HEK 293T normal cell lines treated with Mito-FF, Mito-FxFx, Mito-VV, or Mito-GG was measured in the same manner as described above."}, "HeLa cells [4]": {"test_system": "HeLa cells", "assay": "TEM image analysis of mitochondrial dysfunction in treated cells", "type": "cell-based, human", "details": "20 μM, 3 hours", "protocol": "To visualize the mitochondrial dysfunction induced by Mito-FF, a TEM image analysis was conducted with HeLa cells treated with Mito-FF of a concentration of 20 μM for 3 hours in the same manner as in Example 3."}, "HeLa cells [5]": {"test_system": "HeLa cells", "assay": "flow cytometric analysis (FACS) with annexin V/PI staining", "type": "cell-based, human", "details": "10 μM", "protocol": "For the quantitative analysis of apoptosis, flow cytometric analysis (FACS) was conducted over time with FI-TC annexin V/PI staining assay by using FACSCalibur (available from BD Bioscience), following the protocol of the manufacturer.\nIn detail, HeLa cells treated with 10 μM of Mito-FF were incubated for 4 hours or 8 hours. Then, FACS analysis was performed thereon."}, "[6]": {"assay": "self-assembled morphology and size by electron microscopy (TEM)", "type": "physicochemical", "details": "PBS (10 mM) and water"}, "[7]": {"assay": "critical aggregation concentration (CAC) by pyrene excitation method", "type": "physicochemical", "details": "pyrene excitation spectrum, I344/I339", "protocol": "In order to verify whether intracellular self-assembly of the Mito-FF according to the present disclosure can occur or not, the CAC of the Mito-FF was measured as follows.\nIntensities of emission at 344 nanometers (nm) and 339 nm in a pyrene excitation spectrum differ according to whether pyrene molecules are present as unaggregated individual molecules or as aggregated molecules. The intensities at 344 nm and 339 nm in the excitation spectrum were measured, and the ratio of an intensity in the excitation spectrum at 344 nm to an intensity in the excitation spectrum at 339 nm was calculated. Based on the standard curve shown in FIG. 4, the CAC for Mito-FF was determined."}, "HeLa cells [8]": {"test_system": "HeLa cells", "assay": "FITC annexin/PI staining assay, confocal microscopy", "type": "cell-based, human", "details": "10 μM, Annexin V positive, PI negative", "protocol": "Mitochondria play a vital role in the initiation of an intrinsic apoptosis cascade. It was anticipated that a Mito-peptide localized in a mitochondrion may self-assemble, thereby causing stress in the mitochondrion and inducing apoptotic mechanisms. To confirm this prediction experimentally, FITC annexin/PI staining assay was performed.\nFor the FIIC annexin/PI staining assay, HeLa cells were incubated in an incubator including a DMEM medium (available from Gibco) containing 10% of FBS and 1% of penicillin/streptomycin (available from Life Technologies) at a temperature of 37° C. 10 μM of each peptide was incubated for 1, 4, 6, 8, or 10 hours. Following the protocol of the manufacturer, the cells were incubated for 15 minutes at room temperature in the presence of 100 μL of annexin-binding buffer solution, 5 μL of Alexa Fluor 488-conjugated annexin V (V13241 available from Life Technologies), and 1 μL of a 100 μg/mL PI working solution."}, "[9]": {"assay": "liposomal leakage assay (calcein release)", "protocol": "To confirm this expectation, a liposomal leakage assay was conducted.\nThe release of a self-quenching dye such as calcine from liposome is commonly used to test integrity of lipid bilayers. […] Different concentrations of Mito-FF were added to a vesicle-containing solution, and leakage of encapsulated calcein from the vesicle was monitored."}, "HeLa cells [10]": {"test_system": "HeLa cells", "assay": "mitochondrial membrane potential depolarization with TMRM", "type": "cell-based, human", "details": "HeLa cells incubated with TMRM and peptide", "text": "Under normal conditions, the inner membrane of mitochondria is in an electrochemically polarized state with a higher concentration of H^+ in the inner membrane space. The electrochemical gradient across the membrane causes H^+ to flow to the inner membrane of mitochondria and this process is coupled with production of adenosine triphosphate (ATP). The external materials which may uncouple this process cause the flow of H^+ to be independent of ATP production. This condition is referred as mitochondrial depolarization, which serves as a preliminary indication of mitochondrial dysfunction.\nTo examine the effect of Mito-FF on the mitochondrial membrane potential, HeLa cells were incubated with TMRM and Mito-FF. The fluorescence emission from the TMRM was monitored at times lapses of 1 hour, 3 hours, and 6 hours. Red fluorescence of TMRM appears when a mitochondrial membrane is completely polarized, whereas depolarization of a mitochondrial membrane causes disappearance of TMRM red fluorescence.\nas §1"}, "[11]": {"test_system": "HeLa, MDA-MB-486, MCF10, PC3, SCC7, HEK293T, NIH-3T3", "assay": "cell cytotoxicity, Alamar Blue assay, variety of cell lines", "type": "cell-based", "details": "24 hours, FIG. 33, read-out: IC50 (cell viability)", "protocol": "After the confirmation of the intra-mitochondrial assembly of peptide amphiphile, the toxicity of Mito-peptides toward a variety of cells was analyzed, the cells including cancer cell lines such as HeLa (ATCC, cervical cancer), MDA-MB-486 (ATCC) (mammary cancer) MCF10 (breast cancer), PC3 (ATCC, prostate cancer), SCC7 (ATCC, skin cancer), HEK293T (ATCC), and NIH-3T3 (ATCC).\nas §2"}, "HeLa cells [12]": {"test_system": "HeLa cells", "details": "24 hours, FIG. 32"}},
  "data": [
    {"compound": "NC(=O)[C@H](CCCCNCCCCC[P+](c1ccccc1)(c1ccccc1)c1ccccc1)NC(=O)[C@H](Cc1ccccc1)NC(=O)[C@H](Cc1ccccc1)NC(=O)CCCc1ccc2ccc3cccc4ccc1c2c34", "note": "[Mito-FF]", "values": [
      {"measurement": "ROS generation inside mitochondria (Mito SOX Red)", "setting": "HeLa cells [1]", "value": "ROS was generated inside the mitochondria"},
      {"measurement": "ROS generation within the cell (DHE)", "setting": "HeLa cells [2]", "value": "significant ROS was generated"},
      {"measurement": "toxicity against normal cells", "setting": "[3]", "value": "innocuous"},
      {"measurement": "state of mitochondrion in TEM image", "setting": "HeLa cells [4]", "value": "severely damaged"},
      {"measurement": "time at which late apoptotic stage started", "setting": "HeLa cells [5]", "value": "> 10", "unit": "h"},
      {"measurement": "total population of the cells that entered an early apoptotic stage", "setting": "HeLa cells [5]; within 2 hours", "value": "about 81.2%"},
      {"measurement": "average length of nanofibers", "setting": "[6]", "value": 500, "unit": "nm"},
      {"measurement": "average width of individual fibers", "setting": "[6]", "value": 10, "unit": "nm"},
      {"measurement": "critical aggregation concentration (CAC)", "setting": "[7]", "value": 60, "unit": "µM"},
      {"measurement": "time until cells entered an early apoptotic stage", "setting": "HeLa cells [8]", "value": "≤ 6", "unit": "h"},
      {"measurement": "dye leakage at a concentration below the CAC", "setting": "[9]; concentration below the CAC", "value": "did not induce any dye leakage"},
      {"measurement": "leakage of calcein / dye release from liposome", "setting": "[9]; within 24 hours", "value": 100, "unit": "%"},
      {"measurement": "time until red fluorescence of TMRM disappeared (membrane depolarization)", "setting": "HeLa cells [10]", "value": "≤ 6", "unit": "h"}
    ]},
    {"compound": "NC(=O)[C@H](CCCCNCCCCC[P+](c1ccccc1)(c1ccccc1)c1ccccc1)NC(=O)[C@H](CC1CCCCC1)NC(=O)[C@H](CC1CCCCC1)NC(=O)CCCc1ccc2ccc3cccc4ccc1c2c34", "note": "[Mito-FxFx]", "values": [
      {"measurement": "ROS generation within the cell (DHE)", "setting": "HeLa cells [2]", "value": "ROS generation"},
      {"measurement": "IC50", "setting": "[11]", "value": 10, "unit": "µM"}
    ]},
    {"compound": "CC(C)[C@H](NC(=O)CCCc1ccc2ccc3cccc4ccc1c2c34)C(=O)N[C@H](C(=O)N[C@@H](CCCCNCCCCC[P+](c1ccccc1)(c1ccccc1)c1ccccc1)C(N)=O)C(C)C", "note": "[Mito-VV]", "values": [
      {"measurement": "ROS generation within the cell (DHE)", "setting": "HeLa cells [2]", "value": "ROS generation"},
      {"measurement": "IC50", "setting": "[11]", "value": 10, "unit": "µM"}
    ]},
    {"compound": "pyrene-FFKFxrFxr", "values": [
      {"measurement": "toxicity in HeLa cells", "setting": "HeLa cells [12]", "value": "significant toxicity"}
    ]}
  ]
}
